Results reported in PMC9898036, “VIP152 is a selective CDK9 inhibitor with pre-clinical in vitro and in vivo efficacy in chronic lymphocytic leukemia” (Leukemia, 2022).

Columns and labels:
Assay in all cases: DiscoverX KINOMEscan kinase profiling (468 assays)
Assay type in all cases: binding
human kinome [1] = target: human kinome (Homo sapiens, UniProt P42336, E542K); details: read-out: Percent Control
Procedure, shortened: (§1)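 VIP152 was run in DMSO, alongside a DMSO control. Readout was qPCR of DNA-tagged kinase still bound to bead-immobilized biotinylated kinase ligands after compound competition.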

human kinome [2] = target: human kinome (Homo sapiens, UniProt Q9Y6E0); details: MST3 (Entrez STK24); 100 nM; read-out: Percent Control
Procedure, shortened: as §1

human kinome [3] = target: human kinome (Homo sapiens, UniProt P29376); details: LTK; 100 nM; read-out: Percent Control
Procedure, shortened: as §1

human kinome [4] = target: human kinome (Homo sapiens, UniProt Q00537); details: read-out: Percent Control
Chain of human kinome (Homo sapiens, UniProt Q00537) (Q00537 whole entry): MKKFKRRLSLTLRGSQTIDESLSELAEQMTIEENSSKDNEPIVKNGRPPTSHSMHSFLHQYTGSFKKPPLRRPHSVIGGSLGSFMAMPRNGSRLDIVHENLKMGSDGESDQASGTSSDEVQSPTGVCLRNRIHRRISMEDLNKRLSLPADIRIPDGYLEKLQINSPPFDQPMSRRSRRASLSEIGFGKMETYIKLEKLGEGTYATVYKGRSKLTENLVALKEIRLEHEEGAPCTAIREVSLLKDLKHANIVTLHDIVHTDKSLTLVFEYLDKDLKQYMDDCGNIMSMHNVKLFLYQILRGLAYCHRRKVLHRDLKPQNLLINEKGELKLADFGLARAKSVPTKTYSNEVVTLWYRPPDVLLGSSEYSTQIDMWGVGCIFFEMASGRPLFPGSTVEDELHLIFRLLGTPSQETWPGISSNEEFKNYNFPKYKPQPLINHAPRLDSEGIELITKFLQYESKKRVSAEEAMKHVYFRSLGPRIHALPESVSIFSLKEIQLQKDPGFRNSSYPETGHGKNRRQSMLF
Procedure, shortened: as §1

human kinome [5] = target: human kinome (Homo sapiens, UniProt Q92772); details: CDKL2; 100 nM; read-out: Percent Control
Procedure, shortened: as §1

human kinome [6] = target: human kinome (Homo sapiens, UniProt O14730); details: kinase RIOK3 (Entrez RIOK3); compound concentration 1000 nM; read-out: Percent Control
Procedure, shortened: as §1

human kinome [7] = target: human kinome (Homo sapiens, UniProt P15735); details: read-out: Percent Control
Chain of human kinome (Homo sapiens, UniProt P15735) (P15735 whole entry): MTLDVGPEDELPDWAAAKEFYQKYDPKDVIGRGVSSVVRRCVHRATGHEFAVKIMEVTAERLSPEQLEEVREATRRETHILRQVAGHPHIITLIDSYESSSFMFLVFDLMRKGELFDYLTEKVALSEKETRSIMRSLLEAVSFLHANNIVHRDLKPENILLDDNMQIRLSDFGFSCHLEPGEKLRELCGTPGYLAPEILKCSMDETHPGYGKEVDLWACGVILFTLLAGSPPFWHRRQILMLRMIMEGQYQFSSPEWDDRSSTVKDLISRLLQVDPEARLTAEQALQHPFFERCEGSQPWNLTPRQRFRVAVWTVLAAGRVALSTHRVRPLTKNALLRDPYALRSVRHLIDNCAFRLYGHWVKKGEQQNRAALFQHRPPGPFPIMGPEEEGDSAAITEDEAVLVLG
Procedure, shortened: as §1

human kinome [8] = target: human kinome (Homo sapiens, UniProt P33981); details: kinase TTK (Entrez TTK); compound concentration 1000 nM; read-out: Percent Control
Chain of human kinome (Homo sapiens, UniProt P33981) (P33981 whole entry): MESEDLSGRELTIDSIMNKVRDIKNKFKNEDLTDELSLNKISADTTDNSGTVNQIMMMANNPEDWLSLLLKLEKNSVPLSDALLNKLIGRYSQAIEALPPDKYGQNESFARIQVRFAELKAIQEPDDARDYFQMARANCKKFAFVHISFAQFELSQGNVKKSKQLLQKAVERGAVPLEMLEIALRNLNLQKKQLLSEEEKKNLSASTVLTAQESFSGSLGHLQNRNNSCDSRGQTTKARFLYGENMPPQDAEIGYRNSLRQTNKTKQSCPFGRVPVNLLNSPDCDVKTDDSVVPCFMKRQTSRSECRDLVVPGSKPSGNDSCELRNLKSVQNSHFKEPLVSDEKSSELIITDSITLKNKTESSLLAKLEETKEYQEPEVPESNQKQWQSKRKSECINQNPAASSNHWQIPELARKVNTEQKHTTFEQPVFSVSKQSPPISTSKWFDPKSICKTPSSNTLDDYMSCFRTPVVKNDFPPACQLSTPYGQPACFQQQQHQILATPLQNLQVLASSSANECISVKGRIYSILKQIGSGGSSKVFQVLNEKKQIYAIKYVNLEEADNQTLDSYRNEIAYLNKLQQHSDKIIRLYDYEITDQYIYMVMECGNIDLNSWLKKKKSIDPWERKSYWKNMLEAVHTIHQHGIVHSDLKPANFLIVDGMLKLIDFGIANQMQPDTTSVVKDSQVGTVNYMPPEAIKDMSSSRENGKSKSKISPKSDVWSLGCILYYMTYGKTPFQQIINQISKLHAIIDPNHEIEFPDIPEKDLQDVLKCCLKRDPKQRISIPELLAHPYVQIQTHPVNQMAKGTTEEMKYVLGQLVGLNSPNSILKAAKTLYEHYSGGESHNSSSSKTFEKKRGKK
Procedure, shortened: as §1

human kinome [9] = target: human kinome (Homo sapiens, UniProt P08922); details: kinase ROS1 (Entrez ROS1); compound concentration 1000 nM; read-out: Percent Control
Procedure, shortened: as §1

human kinome [10] = target: human kinome (Homo sapiens, UniProt Q9NRM7); details: LATS2; 100 nM; read-out: Percent Control
Procedure, shortened: as §1

human kinome [11] = target: human kinome (Homo sapiens, UniProt Q13464); details: kinase ROCK1 (Entrez ROCK1); compound concentration 1000 nM; read-out: Percent Control
Procedure, shortened: as §1

human kinome [12] = target: human kinome (Homo sapiens, UniProt P68400); details: CSNK2A1; 100 nM; read-out: Percent Control
Procedure, shortened: as §1

human kinome [13] = target: human kinome (Homo sapiens, UniProt P42336, H1047L); details: read-out: Percent Control
Chain of human kinome (Homo sapiens, UniProt P42336, H1047L) (P42336 whole entry H1047L): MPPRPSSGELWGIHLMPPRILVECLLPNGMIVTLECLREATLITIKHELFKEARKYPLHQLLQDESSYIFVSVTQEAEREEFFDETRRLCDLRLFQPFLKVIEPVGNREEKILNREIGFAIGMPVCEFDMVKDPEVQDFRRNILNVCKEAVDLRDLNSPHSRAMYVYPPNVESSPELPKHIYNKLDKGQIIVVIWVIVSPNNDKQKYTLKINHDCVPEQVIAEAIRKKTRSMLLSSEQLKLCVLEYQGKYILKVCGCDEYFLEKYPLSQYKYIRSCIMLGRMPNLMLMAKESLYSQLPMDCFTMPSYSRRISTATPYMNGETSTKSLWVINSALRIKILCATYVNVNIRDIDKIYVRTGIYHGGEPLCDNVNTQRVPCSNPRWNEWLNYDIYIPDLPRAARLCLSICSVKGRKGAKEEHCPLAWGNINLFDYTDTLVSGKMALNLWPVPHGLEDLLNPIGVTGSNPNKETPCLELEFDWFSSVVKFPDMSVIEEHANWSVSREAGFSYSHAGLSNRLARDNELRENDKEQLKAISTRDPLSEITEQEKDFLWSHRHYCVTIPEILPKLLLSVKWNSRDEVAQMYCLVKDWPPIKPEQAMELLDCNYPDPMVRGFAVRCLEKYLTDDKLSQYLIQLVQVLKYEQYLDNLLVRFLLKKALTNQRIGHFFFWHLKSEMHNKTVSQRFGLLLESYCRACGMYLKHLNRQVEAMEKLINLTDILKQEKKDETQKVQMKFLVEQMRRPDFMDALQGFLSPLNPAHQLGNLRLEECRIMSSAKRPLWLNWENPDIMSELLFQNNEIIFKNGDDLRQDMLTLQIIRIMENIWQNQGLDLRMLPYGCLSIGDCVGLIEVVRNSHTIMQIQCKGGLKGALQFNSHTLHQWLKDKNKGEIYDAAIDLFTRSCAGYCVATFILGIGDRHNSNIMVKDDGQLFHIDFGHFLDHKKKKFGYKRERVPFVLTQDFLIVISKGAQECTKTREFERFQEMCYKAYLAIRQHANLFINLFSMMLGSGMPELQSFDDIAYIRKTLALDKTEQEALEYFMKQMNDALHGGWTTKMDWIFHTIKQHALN
Procedure, shortened: as §1

human kinome [14] = target: human kinome (Homo sapiens, UniProt Q9P0L2); details: MARK1; 100 nM; read-out: Percent Control
Procedure, shortened: as §1

human kinome [15] = target: human kinome (Homo sapiens, UniProt O00329); details: read-out: Percent Control
Chain of human kinome (Homo sapiens, UniProt O00329) (O00329 whole entry): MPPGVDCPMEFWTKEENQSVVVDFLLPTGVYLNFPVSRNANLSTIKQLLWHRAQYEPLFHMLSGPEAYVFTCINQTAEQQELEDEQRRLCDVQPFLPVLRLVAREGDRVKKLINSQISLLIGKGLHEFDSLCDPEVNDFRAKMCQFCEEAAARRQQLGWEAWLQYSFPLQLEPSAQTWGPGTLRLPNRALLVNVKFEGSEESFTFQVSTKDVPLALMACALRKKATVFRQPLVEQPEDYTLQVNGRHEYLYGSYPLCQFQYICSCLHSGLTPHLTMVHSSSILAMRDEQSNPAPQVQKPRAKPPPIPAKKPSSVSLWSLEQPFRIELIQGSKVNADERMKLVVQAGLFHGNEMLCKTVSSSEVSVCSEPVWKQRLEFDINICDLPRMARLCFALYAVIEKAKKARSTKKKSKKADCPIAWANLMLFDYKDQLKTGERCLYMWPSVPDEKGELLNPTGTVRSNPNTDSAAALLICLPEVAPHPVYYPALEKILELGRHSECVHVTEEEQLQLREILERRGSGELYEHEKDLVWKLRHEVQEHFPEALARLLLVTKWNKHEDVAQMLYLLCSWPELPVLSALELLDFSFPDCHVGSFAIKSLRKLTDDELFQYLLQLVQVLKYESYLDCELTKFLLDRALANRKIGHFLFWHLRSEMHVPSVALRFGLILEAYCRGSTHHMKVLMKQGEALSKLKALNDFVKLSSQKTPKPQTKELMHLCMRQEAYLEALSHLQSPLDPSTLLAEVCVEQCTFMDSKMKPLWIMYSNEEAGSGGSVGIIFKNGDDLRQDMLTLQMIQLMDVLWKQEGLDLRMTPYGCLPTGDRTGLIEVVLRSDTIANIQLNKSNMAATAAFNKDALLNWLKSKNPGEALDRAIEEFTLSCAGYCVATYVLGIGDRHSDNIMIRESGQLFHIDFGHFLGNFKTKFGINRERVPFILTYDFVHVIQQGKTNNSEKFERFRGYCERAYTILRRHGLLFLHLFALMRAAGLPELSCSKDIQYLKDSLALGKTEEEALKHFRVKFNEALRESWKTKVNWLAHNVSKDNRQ
Procedure, shortened: as §1

human kinome [16] = target: human kinome (Homo sapiens, UniProt P14616); details: INSRR; 100 nM; read-out: Percent Control
Procedure, shortened: as §1

human kinome [17] = target: human kinome (Homo sapiens, UniProt Q9UQM7); details: CAMK2A; 100 nM; read-out: Percent Control
Procedure, shortened: as §1

human kinome [18] = target: human kinome (Homo sapiens, UniProt O95835); details: LATS1; 100 nM; read-out: Percent Control
Procedure, shortened: as §1

human kinome [19] = target: human kinome (Homo sapiens, UniProt Q9Y243); details: AKT3; 100 nM; read-out: Percent Control
Procedure, shortened: as §1

human kinome [20] = target: human kinome (Homo sapiens, UniProt P36888, D835H); details: FLT3(D835H); 100 nM; read-out: Percent Control
Procedure, shortened: as §1

human kinome [21] = target: human kinome (Homo sapiens, UniProt P49674); details: CSNK1E; 100 nM; read-out: Percent Control
Procedure, shortened: as §1

human kinome [22] = target: human kinome (Homo sapiens, UniProt Q15746); details: read-out: Percent Control
Procedure, shortened: as §1

human kinome [23] = target: human kinome (Homo sapiens, UniProt P49761); details: CLK3; 100 nM; read-out: Percent Control
Procedure, shortened: as §1

human kinome [24] = target: human kinome (Homo sapiens, UniProt O94804); details: LOK (Entrez STK10); 100 nM; read-out: Percent Control
Procedure, shortened: as §1

human kinome [25] = target: human kinome (Homo sapiens, UniProt P10721, D816H); details: KIT(D816H); 100 nM; read-out: Percent Control
Procedure, shortened: as §1

human kinome [26] = target: human kinome (Homo sapiens, UniProt P48736); details: read-out: Percent Control
Chain of human kinome (Homo sapiens, UniProt P48736) (P48736 whole entry): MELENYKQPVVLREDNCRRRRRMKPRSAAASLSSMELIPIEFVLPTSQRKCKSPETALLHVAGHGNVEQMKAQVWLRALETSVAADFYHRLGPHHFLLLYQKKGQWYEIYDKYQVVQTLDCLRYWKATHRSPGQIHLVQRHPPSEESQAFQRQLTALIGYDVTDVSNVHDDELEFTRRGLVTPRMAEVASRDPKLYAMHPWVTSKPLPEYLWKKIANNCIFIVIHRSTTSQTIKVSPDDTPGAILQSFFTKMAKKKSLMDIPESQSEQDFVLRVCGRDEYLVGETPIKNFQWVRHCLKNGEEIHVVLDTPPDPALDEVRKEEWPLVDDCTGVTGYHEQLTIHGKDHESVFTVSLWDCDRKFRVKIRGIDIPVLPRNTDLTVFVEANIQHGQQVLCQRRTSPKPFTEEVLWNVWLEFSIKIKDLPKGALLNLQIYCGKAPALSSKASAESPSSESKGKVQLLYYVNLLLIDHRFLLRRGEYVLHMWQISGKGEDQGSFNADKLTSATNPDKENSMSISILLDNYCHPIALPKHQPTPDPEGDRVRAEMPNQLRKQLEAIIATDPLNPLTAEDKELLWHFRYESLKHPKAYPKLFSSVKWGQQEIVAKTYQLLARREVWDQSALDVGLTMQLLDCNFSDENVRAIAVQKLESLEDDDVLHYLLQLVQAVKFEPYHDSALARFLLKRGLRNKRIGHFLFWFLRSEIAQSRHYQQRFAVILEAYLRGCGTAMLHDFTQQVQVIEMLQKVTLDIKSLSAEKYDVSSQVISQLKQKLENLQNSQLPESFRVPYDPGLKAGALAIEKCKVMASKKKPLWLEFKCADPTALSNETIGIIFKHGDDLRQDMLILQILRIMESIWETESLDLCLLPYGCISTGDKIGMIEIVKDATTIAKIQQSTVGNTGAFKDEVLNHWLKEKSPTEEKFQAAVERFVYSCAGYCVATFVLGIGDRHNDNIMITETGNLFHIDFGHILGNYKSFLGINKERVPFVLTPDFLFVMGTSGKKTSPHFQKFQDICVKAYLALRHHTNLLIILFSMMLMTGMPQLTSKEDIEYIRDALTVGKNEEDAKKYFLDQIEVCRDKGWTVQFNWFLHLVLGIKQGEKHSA
Procedure, shortened: as §1

human kinome [27] = target: human kinome (Homo sapiens, UniProt P08581, M1250T); details: MET(M1250T); 100 nM; read-out: Percent Control
Procedure, shortened: as §1

human kinome [28] = target: human kinome (Homo sapiens, UniProt P54764); details: EPHA4; 100 nM; read-out: Percent Control
Procedure, shortened: as §1

human kinome [29] = target: human kinome (Homo sapiens, UniProt Q02763); details: kinase TIE2 (Entrez TEK); compound concentration 1000 nM; read-out: Percent Control
Procedure, shortened: as §1

human kinome [30] = target: human kinome (Homo sapiens, UniProt P29320); details: EPHA3; 100 nM; read-out: Percent Control
Procedure, shortened: as §1

Chain of human kinome (Homo sapiens, UniProt P42336, E542K) (P42336 whole entry E542K): as the sequence (P42336 whole entry H1047L) above, with E542K, L1047H counted along it

Compound: COc1cc(F)ccc1-c1cc(Nc2cc(CS(C)(=N)=O)ccn2)ncc1F (stereo not shown) [VIP152]
- remaining binding at 0.1 µM (human kinome [1]; PIK3CA(E542K), 100 nM): 100%
- remaining binding at 1 µM (human kinome [1]; kinase PIK3CA(E542K) (Entrez PIK3CA), compound concentration 1000 nM): 100%
- remaining binding at 0.1 µM (human kinome [2]): 100%
- remaining binding at 0.1 µM (human kinome [3]): 96%
- remaining binding at 0.1 µM (human kinome [4]; PCTK2 (Entrez CDK17), 100 nM): 100%
- remaining binding at 1 µM (human kinome [4]; kinase PCTK2 (Entrez CDK17), compound concentration 1000 nM): 54%
- remaining binding at 0.1 µM (human kinome [5]): 100%
- remaining binding at 1 µM (human kinome [6]): 79%
- remaining binding at 0.1 µM (human kinome [7]; PHKG2, 100 nM): 100%
- remaining binding at 1 µM (human kinome [7]; kinase PHKG2 (Entrez PHKG2), compound concentration 1000 nM): 88%
- remaining binding at 1 µM (human kinome [8]): 68%
- remaining binding at 1 µM (human kinome [9]): 80%
- remaining binding at 0.1 µM (human kinome [10]): 99%
- remaining binding at 1 µM (human kinome [11]): 57%
- remaining binding at 0.1 µM (human kinome [12]): 100%
- remaining binding at 0.1 µM (human kinome [13]; PIK3CA(H1047L), 100 nM): 100%
- remaining binding at 1 µM (human kinome [13]; kinase PIK3CA(H1047L) (Entrez PIK3CA), compound concentration 1000 nM): 100%
- remaining binding at 0.1 µM (human kinome [14]): 82%
- remaining binding at 0.1 µM (human kinome [15]; PIK3CD, 100 nM): 100%
- remaining binding at 1 µM (human kinome [15]; kinase PIK3CD (Entrez PIK3CD), compound concentration 1000 nM): 75%
- remaining binding at 0.1 µM (human kinome [16]): 100%
- remaining binding at 0.1 µM (human kinome [17]): 91%
- remaining binding at 0.1 µM (human kinome [18]): 100%
- remaining binding at 0.1 µM (human kinome [19]): 100%
- remaining binding at 0.1 µM (human kinome [20]): 100%
- remaining binding at 0.1 µM (human kinome [21]): 95%
- remaining binding at 0.1 µM (human kinome [22]; MYLK, 100 nM): 95%
- remaining binding at 1 µM (human kinome [22]; kinase MYLK (Entrez MYLK), compound concentration 1000 nM): 77%
- remaining binding at 0.1 µM (human kinome [23]): 93%
- remaining binding at 0.1 µM (human kinome [24]): 95%
- remaining binding at 0.1 µM (human kinome [25]): 100%
- remaining binding at 0.1 µM (human kinome [26]; PIK3CG, 100 nM): 100%
- remaining binding at 1 µM (human kinome [26]; kinase PIK3CG (Entrez PIK3CG), compound concentration 1000 nM): 97%
- remaining binding at 0.1 µM (human kinome [27]): 92%
- remaining binding at 0.1 µM (human kinome [28]): 73%
- remaining binding at 1 µM (human kinome [29]): 86%
- remaining binding at 0.1 µM (human kinome [30]): 100%
